Source: US6358984B1, “2,4-dioxopyrrolidine and 2,4-dioxotetrahydrofuran derivatives and medicines containing the same as the active ingredient” (Lead Chemical Co., Ltd., priority 1996, dated 2002)
Where two headings read alike, the source gives them in different places.

Legend:
[1] = target: T1, angiotensin II receptor (Oryctolagus cuniculus, UniProt P34976); experiment: Binding inhibition of 3H labeled angiotensin II to angiotensin II receptor membrane fraction; parameters: species or system rabbit; conditions: rabbit adrenal gland membrane, 3H labeled angiotensin II 10^-9M; read-out: Receptor binding inhibition effect IC50
T1 construct: fraction of angiotensin II receptor membrane ([…]) prepared from rabbit adrenal gland; from tissue; host or cells: rabbit adrenal gland membrane fraction
T1 sequence (P34976 1-359): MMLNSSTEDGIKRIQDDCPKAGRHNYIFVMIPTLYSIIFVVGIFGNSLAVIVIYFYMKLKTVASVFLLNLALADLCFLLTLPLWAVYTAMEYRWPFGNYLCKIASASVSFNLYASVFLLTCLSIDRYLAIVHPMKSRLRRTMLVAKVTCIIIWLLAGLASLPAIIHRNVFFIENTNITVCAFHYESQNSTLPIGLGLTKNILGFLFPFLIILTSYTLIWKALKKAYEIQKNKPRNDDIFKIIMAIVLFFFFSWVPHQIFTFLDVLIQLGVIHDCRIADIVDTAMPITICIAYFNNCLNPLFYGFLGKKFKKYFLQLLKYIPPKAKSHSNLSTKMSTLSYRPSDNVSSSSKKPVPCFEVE
Protocol: The method of Cox et. al (Biochemical Pharmacology 33, 4057-4064 (1984) was modified to conduct angiotensin II receptor binding inhibition experiments. The present compounds (10^−5M to 10^−9M) and ^3H labeled angiotensin II (10^−9M) were added to a fraction of angiotensin II receptor membrane ([…]) prepared from rabbit adrenal gland and were allowed to react in a 20 mM Tris HCl buffer (pH: 7.0) containing 120 mM NaCl, 5 mM EDTA, 0.1 mM PMSF, and 0.2% BSA at 30° C. for 20 minutes so that the final volume was 540 μl. Then, the reaction mixture was quickly passed through a filter (whatman GF/B), and the filter was then rinsed three times in 4 ml of the buffer cooled in ice. Then, the radioactivity of receptor binding ^3H labeled angiotensin II captured on the filter was measured using a liquid scintillation counter. The angiotensin II receptor binding inhibition activity of the present compounds was evaluated based on the concentration (IC 50) required to replace 50% of the total amount of specifically binding ^3H labeled angiotensin II.

[2] = tested on: aortae of guinea pigs; experiment: Inhibition of vascular contraction caused by angiotensin II using pieces of the aortae of guinea pigs; type: cell-based; conditions: guinea pig chest aorta, contraction induced by angiotensin II, read-out: Vascular contraction inhibition effect IC50
Protocol: Male Hartly guinea pigs (350 to 400 g) were contused on the head and sacrificed by allowing their blood to discharge from the arteria carotis communis. Immediately after death, the chest aorta was removed. A spiral sample of width 2 to 3 mm and length 20 to 25 mm was cut from the aorta, and was suspended in 4.5 ml of Krebs-Henseleit (K-H) solution (120 mM NaCl, 4.7 mM KCl, […], 1.2 mM KH2PO4, 2.5 mM CaCl2, 25 mM NaHCO3, and 10 mM glucose) in a Magnus vessel. The K-H solution in the Magnus vessel was maintained at 37° C., and a mixture gas of 95% O2 and 5% CO2 was continuously bubbled through the solution. First, 1 g of initial tension was applied to the sample, which was then left to stand rest for about 30 minutes, and 45 μl of 4M KCl solution was added to the solution to induce contraction. After contraction had stabilized, a washing operation was performed to replace the K-H solution. Then, after the sample was left to stand for 30 minutes, 45 μl of solvent DMSO was added to incubate the sample for 15 minutes, and 45 μl of angiotensin II solution (3×10^−8M) was added to induce contraction. This operation was repeated three times and 100% contraction was used as the average. Subsequently, the sample was stabilized by washing. Then, a 45 μl sample of each test compound prepared for each concentration (3×10^−5M to 10^−7M) using DMSO as a solvent was used to observe the inhibition effect of angiotensin II on vascular contraction by performing the same operation as described above. The contraction reaction was recorded on a recorder (RTA-1100, Japan Photoelectronics) via an equi-scale pressure transducer (TB-651T, Japan Photoelectronics). The angiotensin II inhibition effects of the test compounds were evaluated using the IC50 value.

[3] = tested on: hypertension caused by angiotensin II; experiment: Inhibition effect in the hypertension caused by angiotensin II using rats; type: in vivo, rat; conditions: i. v., male SD rats, angiotensin II 100 ng/kg; for inhibition in vivo at 1 mg/kg: Rattus norvegicus, iv
Protocol: Male SD rats (age; 11 weeks; 310 to 330 g) Were used, and indwelling cannula were placed in the femoral aorta and the vena cava, under anesthesia with inactin. The arterial cannula was connected to a pressure transducer to record the blood pressure via a carrier amplifier (AP-601G Japan Photoelectronics) using a polygraph system (RM-6000 Japan Photoelectronics). Prior to tests using the test compounds, 100 ng/kg-equivalent angiotensin II (50 μl of serum solution from the rat) was administered using a regular-pulse cannula to check the hypertensive action. Then, 30 minutes later, a 1 mg/kg-equivalent test compound (50 μl of serum solution from the rat) was administered using the regular-pulse cannula, and similar administration of angiotensin II was performed 5 and 60 minutes later to check the corresponding hypertensive action. The hypertensive effect resulting from the administration of only angiotensin II was taken as a reference value of 100% to determine the antihypertensive rates of the test compounds.

[4] = 5 min, 5 minutes after administration, read-out: Inhibition effect in the hypertension by angiotensin II, 5 minutes after administration
[5] = 1 h, 60 minutes after administration, read-out: Inhibition effect in the hypertension by angiotensin II, 60 minutes after administration

Compound	IC50 [1] [nM]	melting point [°C]	IC50 ([2]; Cavia porcellus) [µM]	inhibition in vivo at 1 mg/kg [3, 4] [%]	inhibition in vivo at 1 mg/kg [3, 5] [%]	Inhibition effect in the hypertension by angiotensin II, 5 minutes after administration ([3]; 1 mg/kg, 5 minutes after administration)	Inhibition effect in the hypertension by angiotensin II, 60 minutes after administration ([3]; 1 mg/kg, 60 minutes after administration)	IC50 [2] [µM]
CCCCc1nc(C2CC2)nn1Cc1ccc(-c2ccccc2/C=C2\NC(=O)CC2=O)cc1 [Compound 1c, 5-Butyl-3-cyclopropyl-1-[2′-[(2,4-dioxopyrrolidine-5(Z)-ylidene)methyl]biphenyl-4-yl]methyl-1H-1,2,4-triazole]	2000	166 to 168	> 300	–	–	–	–	–
CC(C)c1nc(C(C)C)n(Cc2ccc(-c3ccccc3/C=C3\OC(=O)C=C3O)cc2)n1 [Compound 2b, 3,5-Diisopropyl-1-[2′-[(4-hydroxy-2(5H)-furanone-5(Z)-ylidene)methyl]biphenyl-4-yl]methyl-1H-1,2,4-triazole]	930	191 to 193	> 300	–	–	–	–	–
CCCCc1nc(-c2ccccc2)nn1Cc1ccc(-c2ccccc2/C=C2\NC(=O)CC2=O)cc1 [Compound 1e, 5-Butyl-3-phenyl-1-[2′-[(2,4-dioxopyrrolidine-5(Z)-ylidene)methyl]biphenyl-4-yl]methyl-1H-1,2,4-triazole]	> 6300	180 to 181	> 300	–	–	–	–	–
CCCCc1nnc(CCCC)n1Cc1ccc(-c2ccccc2/C=C2\NC(=O)CC2=O)cc1 [Compound 19a]	8000	185 to 186	> 300	–	–	–	–	–
CCCCc1nc(-c2ccco2)nn1Cc1ccc(-c2ccccc2/C=C2\OC(=O)C=C2O)cc1 [Compound 2j, 5-Butyl-(furan-2-yl)-1-[2′-[(4-hydroxy-2(5H)-furanone-5(Z)-ylidene)methyl]biphenyl-4-yl]methyl-1H-1,2,4-triazole]	280	172 to 173	> 300	< 10	< 10	–	–	–
CCCCc1nc(-c2cccc(F)c2)nn1Cc1ccc(-c2ccccc2/C=C2\OC(=O)C=C2O)cc1 [Compound 2h, 5-Butyl-3-(3-fluorophenyl)-1-[2′-[(4-hydroxy-2(5H)-furanone-5(Z)-ylidene)methyl]biphenyl-4-yl]methyl-1H-1,2,4-triazole]	–	184 to 185	–	–	–	–	–	–
CC(C)c1nc(C(C)C)n(Cc2ccc(-c3ccccc3/C=C3\NC(=O)CC3=O)cc2)n1 [Compound 1b, 3,5-Diisopropyl-1-[2′-[(2,4-dioxopyrrolidine-5-(Z)-ylidene)methyl]biphenyl-4-yl]methyl-1H-1,2,4-triazole]	> 7000	141 to 142	> 300	–	–	–	–	–
CCCCc1nc(C2CC2)nn1Cc1ccc(-c2ccccc2/C=C2\OC(=O)C=C2O)cc1 [Compound 2c, 5-Butyl-3-cyclopropyl-1-[2′-[(4-hydroxy-2(5H)-furanone-5(Z)-ylidene)methyl]biphenyl-4-yl]methyl-1H-1,2,4-triazole]	150	168 to 170	> 300	10 to 30	< 10	–	–	–
CCCCc1nc(-c2ccncc2)nn1Cc1ccc(-c2ccccc2/C=C2\NC(=O)CC2=O)cc1 [Compound 1i, 5-Butyl-3-(pyridine-4-yl)-1-[2′-[(2,4-dioxopyrrolidine-5(Z)-ylidene)methyl]biphenyl-4-yl]methyl-1H-1,2,4-triazole]	> 6300	144 to 145	> 300	–	–	–	–	–
CCCCc1nnc(CCCC)n1Cc1ccc(-c2ccccc2/C=C2\OC(=O)C=C2O)cc1 [Compound 19b, 3,5-Dibutyl-1-[2′-[(4-hydroxy-2(5H)-furanone-5(Z)-ylidene)-methyl]biphenyl-4-yl]methyl-4H-1,2,4-triazole]	680	–	> 300	–	–	–	–	–
5-Butyl-3-(3-fluorophenyl)-1-[2′-[(4-hydroxy-2(5H)-furanone-5(Z)-ylidene)methyl]biphenyl-4-yl]methyl-1H-1,2,4-triazole [Compound 2h]	–	–	–	–	–	+ (30% > + ≧ 10%)	− (10% > −)	220
CCCCc1nc(-c2cccs2)nn1Cc1ccc(-c2ccccc2/C=C2\OC(=O)C=C2O)cc1 [Compound 2k, 5-Butyl-3-(thiophene-2-yl)-1-[2′-[(4-hydroxy-2(5H)-furanone-5(Z)-ylidene)methyl]biphenyl-4-yl]methyl-1H-1,2,4-triazole]	310	179 to 180	> 300	10 to 30	< 10	–	–	–
CCCCc1nc(-c2cccs2)nn1Cc1ccc(-c2ccccc2/C=C2\NC(=O)CC2=O)cc1 [Compound 1k, 5-Butyl-3-(thiophene-2-yl)-1-[2′-[(2,4-dioxopyrrolidine-5(Z)-ylidene)methyl]biphenyl-4-yl]methyl-1H-1,2,4-triazole]	4200	186 to 187	> 300	–	–	–	–	–
CCCCc1nc(-c2ccco2)nn1Cc1ccc(-c2ccccc2/C=C2\NC(=O)CC2=O)cc1 [Compound 1j, 5-Butyl-3-(furan-2-yl)-1-[2′-[(2,4-dioxopyrrolidine-5(Z)-ylidene)methyl]biphenyl-4-yl]methyl-1H-1,2,4-triazole]	2200	169 to 170	> 300	–	–	–	–	–
CCCCc1nc(-c2ccccc2F)nn1Cc1ccc(-c2ccccc2/C=C2\NC(=O)CC2=O)cc1 [Compound 1h, 5-Butyl-3-(2-fluorophenyl)-1-[2′-[(2,4-dioxopyrrolidine-5(Z)-ylidene)methyl]biphenyl-4-yl]methyl-1H-1,2,4-triazole]	4500	169 to 170	> 300	–	–	–	–	–
CCCCc1nc(-c2ccc(F)cc2)nn1Cc1ccc(-c2ccccc2/C=C2\NC(=O)CC2=O)cc1 [Compound 1g, 5-Butyl-3-(4-fluorophenyl)-1-[2′-[(2,4-dioxopyrrolidine-5(Z)-ylidene)methyl]biphenyl-4-yl]methyl-1H-1,2,4-triazole]	> 6100	188 to 190	> 300	–	–	–	–	–
CCCCc1nc(-c2ccc(F)cc2)nn1Cc1ccc(-c2ccccc2/C=C2\OC(=O)C=C2O)cc1 [Compound 2g, 5-Butyl-3-(4-fluorophenyl)-1-[2′-[(4-hydroxy-2(5H)-furanone-5(Z)-ylidene)methyl]biphenyl-4-yl]methyl-1H-1,2,4-triazole]	690	175 to 176	> 300	–	–	–	–	–
